Read-outs that look alike come from different tables or passages of the source.

Results on five compounds are retold here after paper PMC9005681, “Use of AD Informer Set compounds to explore validity of novel targets in Alzheimer's disease pathology” (Alzheimer's & Dementia : Translational Research & Clinical …, 2022).

In data set [1] the test system is N2a cells stably expressing wild-type PS1 and myc-tagged Swedish mutant APP (APPsw). Also noted: method as in PMID 16354722. To be noted: cited from earlier work.
Data set [2] deals with EPHX2. On the set-up: method as in column References for potency and dosing (the 5th table c13). To be noted: cited from earlier work.
Data set [3] concerns the target T1, norepinephrine transporter (Homo sapiens, UniProt P23975).
T1 construct: expressed in transfected cells
Put plainly: PDSP secondary binding, norepinephrine transporter. On the set-up: species or system human or rodent. How it is done:
(§1) GPCR panel: Screening against the receptors within the PDSP panel offers an assessment of off-target pharmacological activity at cloned human or rodent CNS receptors, channels, and transporters that could confound CNS-related phenotypes. A total of 46–47 primary binding assays were run in quadruplicate on these compounds at 10 μM, with follow-up secondary binding assays in 11-point dose-response in triplicate for select compounds versus select receptors. Secondary binding assays were executed for all receptors where test compound displaced an average of >50% of radio-labeled standard ligand. As an exception, no secondary assays were carried out for H3, PBR, or GABAA. […]

Data set [4] has as its target T2, serotonin transporter (Homo sapiens, UniProt P31645).
T2 construct: expressed in transfected cells
Put plainly: PDSP secondary binding, serotonin transporter. On the set-up: species or system human or rodent. How it is done:
as §1

For data set [5], the system named is HMC3 (human microglia) immortalized cell line. To be noted: 10 μM, human immortalized microglial cells; cited from earlier work.
For data set [6], the system named is FLT3. On the set-up: method as in PubMed 25068800, 27649555. To be noted: published affinity; ref PubMed 25068800, 27649555; cited from earlier work.
Data set [7] has as its target T3, 5-HT2A receptor (Homo sapiens, UniProt P28223).
T3 construct: expressed in transfected cells
Put plainly: PDSP secondary binding, 5-HT2A. Also noted: species or system human or rodent. Here is the method: as §1

For data set [8] the following is noted: mouse, IV, published PK values, cited from earlier work.
The test system of data set [9] is MerTK. Also noted: method as in PubMed 25068800, 27649555. To be noted: published affinity; ref PubMed 25068800, 27649555; cited from earlier work.
The target of data set [10] is T4, H4 receptor (Homo sapiens, UniProt Q9H3N8).
T4 construct: expressed in transfected cells
The data set is described as follows: PDSP secondary binding, H4. Also noted: species or system human or rodent. Here is the method: as §1

For data set [11], the target named is T5, Alpha1D receptor (Homo sapiens, UniProt P25100).
T5 construct: expressed in transfected cells
Put plainly: PDSP secondary binding, Alpha1D. Also noted: species or system human or rodent. Here is the method:
as §1

The subject of data set [12] is human nerve cells. On the set-up: method as in PMID 31378059. To be noted: cited from earlier work.
The test system of data set [13] is tau hyperphosphorylation species (Ser396 and Ser404). Also noted: method as in PMID 32488482. To be noted: 5 mg/kg/day; cited from earlier work.

T3 sequence (P28223 whole entry): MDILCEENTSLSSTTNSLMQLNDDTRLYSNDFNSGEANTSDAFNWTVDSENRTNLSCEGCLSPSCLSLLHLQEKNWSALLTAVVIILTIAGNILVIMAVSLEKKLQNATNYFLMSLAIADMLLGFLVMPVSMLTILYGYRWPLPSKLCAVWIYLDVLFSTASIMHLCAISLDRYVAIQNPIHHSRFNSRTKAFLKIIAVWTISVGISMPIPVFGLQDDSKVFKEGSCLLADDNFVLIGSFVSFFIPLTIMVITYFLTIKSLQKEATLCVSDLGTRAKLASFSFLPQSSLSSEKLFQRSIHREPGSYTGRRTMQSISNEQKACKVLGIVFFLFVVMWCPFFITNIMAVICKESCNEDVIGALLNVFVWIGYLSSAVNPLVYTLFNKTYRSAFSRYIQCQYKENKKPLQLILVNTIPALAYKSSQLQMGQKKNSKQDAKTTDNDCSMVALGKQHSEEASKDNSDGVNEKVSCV
T4 sequence (Q9H3N8 whole entry): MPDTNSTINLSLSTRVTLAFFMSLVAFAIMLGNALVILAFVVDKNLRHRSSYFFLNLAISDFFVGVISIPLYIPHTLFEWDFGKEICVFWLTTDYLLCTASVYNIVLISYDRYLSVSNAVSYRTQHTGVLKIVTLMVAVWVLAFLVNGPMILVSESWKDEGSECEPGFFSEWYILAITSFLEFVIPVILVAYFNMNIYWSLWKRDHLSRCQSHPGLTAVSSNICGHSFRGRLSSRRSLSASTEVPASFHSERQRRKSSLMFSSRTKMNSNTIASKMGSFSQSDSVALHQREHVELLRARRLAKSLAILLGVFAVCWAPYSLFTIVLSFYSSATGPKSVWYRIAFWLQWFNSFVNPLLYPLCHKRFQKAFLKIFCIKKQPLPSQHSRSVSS
T5 sequence (P25100 whole entry): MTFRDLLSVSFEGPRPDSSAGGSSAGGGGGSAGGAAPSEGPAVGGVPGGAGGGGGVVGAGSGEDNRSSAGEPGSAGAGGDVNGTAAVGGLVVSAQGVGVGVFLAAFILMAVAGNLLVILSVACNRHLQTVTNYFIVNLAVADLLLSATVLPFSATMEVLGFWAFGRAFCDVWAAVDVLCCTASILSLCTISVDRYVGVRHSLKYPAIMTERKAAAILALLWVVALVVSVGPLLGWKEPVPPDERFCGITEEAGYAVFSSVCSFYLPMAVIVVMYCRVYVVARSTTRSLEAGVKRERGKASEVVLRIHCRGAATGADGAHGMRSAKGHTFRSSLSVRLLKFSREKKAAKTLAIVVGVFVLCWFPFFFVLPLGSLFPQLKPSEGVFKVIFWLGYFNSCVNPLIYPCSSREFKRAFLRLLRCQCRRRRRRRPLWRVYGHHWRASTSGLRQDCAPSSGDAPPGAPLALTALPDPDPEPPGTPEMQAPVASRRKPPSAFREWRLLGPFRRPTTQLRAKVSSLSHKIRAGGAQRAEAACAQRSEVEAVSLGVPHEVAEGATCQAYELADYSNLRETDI
T1 sequence (P23975 whole entry): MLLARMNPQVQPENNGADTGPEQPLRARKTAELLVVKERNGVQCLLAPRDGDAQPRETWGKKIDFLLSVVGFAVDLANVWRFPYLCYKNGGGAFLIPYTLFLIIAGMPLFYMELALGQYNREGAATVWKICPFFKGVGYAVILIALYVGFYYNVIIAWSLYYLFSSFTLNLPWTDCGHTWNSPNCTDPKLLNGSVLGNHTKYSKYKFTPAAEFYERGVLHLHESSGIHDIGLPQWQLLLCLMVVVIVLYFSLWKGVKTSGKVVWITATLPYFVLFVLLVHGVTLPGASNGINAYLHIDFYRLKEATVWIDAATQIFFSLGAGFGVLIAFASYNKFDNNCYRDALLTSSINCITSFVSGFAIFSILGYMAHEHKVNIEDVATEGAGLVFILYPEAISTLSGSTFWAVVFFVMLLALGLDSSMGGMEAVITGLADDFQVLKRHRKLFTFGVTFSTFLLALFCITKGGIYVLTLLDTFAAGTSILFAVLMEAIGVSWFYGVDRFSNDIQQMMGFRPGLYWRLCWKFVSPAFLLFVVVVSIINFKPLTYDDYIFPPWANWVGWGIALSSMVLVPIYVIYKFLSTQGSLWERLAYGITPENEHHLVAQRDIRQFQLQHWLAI
T2 sequence (P31645 whole entry): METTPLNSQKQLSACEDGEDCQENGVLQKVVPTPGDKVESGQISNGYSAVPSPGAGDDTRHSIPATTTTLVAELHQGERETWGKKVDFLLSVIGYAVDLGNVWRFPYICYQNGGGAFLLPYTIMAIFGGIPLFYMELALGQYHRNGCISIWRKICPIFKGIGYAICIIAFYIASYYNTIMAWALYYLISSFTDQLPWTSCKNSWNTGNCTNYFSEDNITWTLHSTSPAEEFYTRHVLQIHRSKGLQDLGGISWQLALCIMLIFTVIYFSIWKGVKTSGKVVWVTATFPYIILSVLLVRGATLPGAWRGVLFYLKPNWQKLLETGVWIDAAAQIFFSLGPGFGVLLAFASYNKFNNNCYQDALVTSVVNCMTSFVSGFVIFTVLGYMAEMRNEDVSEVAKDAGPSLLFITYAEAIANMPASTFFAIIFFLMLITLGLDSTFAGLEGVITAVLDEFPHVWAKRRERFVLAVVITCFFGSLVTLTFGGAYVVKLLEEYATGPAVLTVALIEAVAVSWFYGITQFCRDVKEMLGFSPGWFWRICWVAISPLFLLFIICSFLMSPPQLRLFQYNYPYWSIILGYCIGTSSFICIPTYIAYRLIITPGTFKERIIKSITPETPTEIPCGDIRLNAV

Regarding MDL 28170 [UNC10302675A], the “Secretion of Aβ40 and Aβ42” value in data set [1] (30 μM for 24 hours) was “did not inhibit”. For the same compound, in data set [1] (30 μM, between 24 and 48 hours), the “Levels of secreted Aβ40 and Aβ42” value is “increased dramatically”. In addition, in data set [1] (concentrations < 5 μM, 48 hours), the “Response in secreted Aβ40 or Aβ42” value is “did not result in a response”.
Take `CNc1nc(C)nc(N[C@H]2CCC[C@@H](C(=O)NCc3ccc(C#N)cc3C(F)(F)F)C2)n1` [UNC10302679A, GSK2256294A]: the “Reported on-target biochemical potency, EPHX2” value in [2] (published affinity, References for potency and dosing) is recorded as 0.027 nM.
Turning to `CCCCNc1ncc2c(-c3ccc(CN4CCN(C)CC4)cc3)cn([C@H]3CC[C@H](O)CC3)c2n1` [UNC2025C, UNC2025], the Ki (commonly a measure of affinity in units of concentration, obtained from inhibition or displacement) in data set [3] (Receptor NET, secondary assay, read-out: Ki (nM) 1) was 1400 nM; in data set [3] (calculated Ki, secondary binding assay, read-out: Ki norepinephrine transporter), 1400 nM; in data set [4] (Receptor SERT, secondary assay, read-out: Ki (nM) 1), 906 nM; in data set [4] (calculated Ki, secondary binding assay, read-out: Ki serotonin transporter) it was 900 nM; in data set [7] (Receptor 5-HT2A, secondary assay, run 1, read-out: Ki (nM) 1), 366 nM; in [7] (Receptor 5-HT2A, secondary assay, run 2, read-out: Ki (nM) 2) it was 462 nM. Moreover, the Ki was 400 nM in [7] (calculated Ki, secondary binding assay, read-out: Ki 5-HT2A); 4000 nM in data set [10] (Receptor H4, secondary assay, read-out: Ki (nM) 1); 4000 nM in [10] (calculated Ki, secondary binding assay, read-out: Ki H4); 4960 nM in data set [11] (Receptor Alpha1D, secondary assay, read-out: Ki (nM) 1); 5000 nM in data set [11] (calculated Ki, secondary binding assay, read-out: Ki Alpha1D). Also, the “Human microglial cytotoxicity at 10 μM (<70% control)” value in data set [5] is listed as “Y (The compound was found to be cytotoxic (cell count threshold: <70% control) when human immortalized microglial cells were dosed at 10 μM (Y: yes))”. For the same compound, in data set [6], the “Reported on-target biochemical potency, FLT3” value is 0.8 nM. In addition, the AUClast in [8] (3.0 mg/kg) was 9.78 µM·h. In addition, the Cmax (as a rule, the highest concentration seen after dosing) in data set [8] (3.0 mg/kg) is 4.36 µM. For the same compound, in data set [8] (3.0 mg/kg), the Vss – broadly, the apparent volume that relates the amount in the body to the concentration in plasma or blood – is 2.33 L/kg. In addition, the “Reported on-target biochemical potency, MERTK” value in data set [9] is recorded as 0.74 nM.
As for `CCC(=O)N1CCC(NC(=O)Nc2ccc(OC(F)(F)F)cc2)CC1` [UNC10302681A, TPPU], the Tau hyperphosphorylation entry in data set [12] is “prevent tau hyperphosphorylation”. In addition, in data set [2], the “Reported on-target biochemical potency, EPHX2” value is 3.7 nM. Further, in [13], the “Tau hyperphosphorylation species (Ser396 and Ser404)” value is “reduction of tau hyperphosphorylation species”.
With `O=C(NC1CC1)C(=O)C(Cc1ccccc1)NC(=O)[C@H]1CCC(=O)N1Cc1ccccc1` (some centres unmarked) [UNC10302676A, ABT-957 (Alicapistat)], in data set [8] (2.0 mg/kg), the AUClast was 35.6 µM·h and the CL was 0.468 L/h/kg.
